Data as given in patent publication US20060025463A1, “Enoximone sulfoxide enantiomers and their use in the treatment of PDE-III mediated diseases” (priority 2004, published 2006).
pIC50: −log10 of the molar value. Read-outs that look alike come from different tables or passages of the source.

Legend:
[1] = tested on: trabeculae from the right ventricular free wall of explanted human hearts; experiment: Tension study: peak contractile force of isolated human right ventricular trabeculae in a muscle bath; conditions: 37° C., 1.0 Hz field stimulation, increasing concentrations
Experimental: Explanted human hearts were obtained from transplant recipients (n=7) and from nonfailing donor hearts (n=1). After excision, hearts were placed immediately into ice cold Tyrode's solution and aerated with 95% O2 and 5% CO2. Trabeculae between 1-3 mm in width and 7-10 mm in length were excised from the right ventricular free wall. Subsequently trabeculae were mounted in a multi-chamber muscle bath in oxygenated Tyrode's solution at 37° C. The trabeculae were placed under 1 gram of resting tension and a field stimulation of 1.0 Hz. […] Peak contractile forces were recorded at 10 minute intervals for a total of 1½ hours. Following experimentation, trabeculae were frozen in liquid N2.

[2] = tested on: men who suffer from ED of psychogenic or organic etiology; conditions: clinical studies; cited from earlier work
PDE-III = conditions: cited from earlier work
[3] = target: T1, PDE-III isolated from human platelets (Homo sapiens, UniProt Q14432); experiment: PDE-III inhibition assay, [3H]cAMP substrate, [3H]Adenosine quantified; format: biochemical; conditions: triplicate at three concentrations over log scale, semi-quantitative
T1 construct: PDE-III isolated from human platelets; from tissue; host or cells: human platelets
Experimental: Enoximone Sulfoxide enantiomer was tested for its ability to inhibit the action of PDE-III isolated from human platelets. The substrate was [^3H]cAMP+cAMP, which is converted by PDE-III to [^3H]Adenosine and then [^3H]Adenosine can be quantified.

[4] = cited from earlier work
[5] = oral, cited from earlier work

T1 sequence (Q14432 whole entry): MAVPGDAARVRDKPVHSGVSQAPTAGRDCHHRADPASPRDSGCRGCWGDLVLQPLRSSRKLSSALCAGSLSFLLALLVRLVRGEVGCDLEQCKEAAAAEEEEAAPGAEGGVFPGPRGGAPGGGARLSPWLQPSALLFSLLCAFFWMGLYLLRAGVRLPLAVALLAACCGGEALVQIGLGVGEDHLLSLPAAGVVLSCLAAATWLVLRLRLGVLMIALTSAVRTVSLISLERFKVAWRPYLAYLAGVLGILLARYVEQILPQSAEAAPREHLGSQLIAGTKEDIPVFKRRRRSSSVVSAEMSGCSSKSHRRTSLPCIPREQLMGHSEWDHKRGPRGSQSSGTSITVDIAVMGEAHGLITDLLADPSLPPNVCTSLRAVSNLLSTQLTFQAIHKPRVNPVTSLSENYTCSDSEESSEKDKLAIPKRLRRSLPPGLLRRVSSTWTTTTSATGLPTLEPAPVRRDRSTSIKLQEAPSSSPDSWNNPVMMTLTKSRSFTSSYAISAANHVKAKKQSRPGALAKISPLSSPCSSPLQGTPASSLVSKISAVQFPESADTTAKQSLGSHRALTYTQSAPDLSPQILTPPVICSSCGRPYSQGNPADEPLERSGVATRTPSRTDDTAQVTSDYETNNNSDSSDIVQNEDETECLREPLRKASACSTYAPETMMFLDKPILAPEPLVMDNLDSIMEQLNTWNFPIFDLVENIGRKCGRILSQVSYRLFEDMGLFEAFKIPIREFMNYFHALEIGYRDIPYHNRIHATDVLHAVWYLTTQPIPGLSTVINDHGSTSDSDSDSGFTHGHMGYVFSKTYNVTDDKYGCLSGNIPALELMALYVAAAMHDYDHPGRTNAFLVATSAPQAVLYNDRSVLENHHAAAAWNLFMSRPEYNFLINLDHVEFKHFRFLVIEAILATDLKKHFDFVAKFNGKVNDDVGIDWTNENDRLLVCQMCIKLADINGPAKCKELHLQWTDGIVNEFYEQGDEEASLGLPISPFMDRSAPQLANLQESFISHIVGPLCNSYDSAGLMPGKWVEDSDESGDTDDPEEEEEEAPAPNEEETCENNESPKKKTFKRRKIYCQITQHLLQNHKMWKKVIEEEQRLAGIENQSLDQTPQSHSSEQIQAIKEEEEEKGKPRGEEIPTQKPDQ

## CC(C)NCC(O)c1ccc(O)c(O)c1 (stereo not drawn) [Isoproterenol]
[1]
  peak contractile force (net, T=0 value subtracted): > 1000 mg of tension

## CCCc1nn(C)c2c(=O)[nH]c(-c3cc(S(=O)(=O)N4CCN(C)CC4)ccc3OCC)nc12 [sildenafil, 5-[2-ethoxy-5-(4-methylpiperazin-1-ylsulphonyl)phenyl]-1-methyl-3-n-propyl-6,7-dihydro-1H-pyrazolo[4,3-d]pyrimidin-7-one]
[2]
  men with improved sexual function: about 70%
PDE-III
  inhibition of PDE-III: negligible inhibition

## Cc1[nH]c(=O)[nH]c1C(=O)c1ccc([S@+](C)[O-])cc1 [(S)-(−)-enantiomer, 1,3-Dihydro-4-methyl-5-[(4-methylsulfinyl)-benzoyl]-2H-imidazol-2-one hydrate]
[1]
  peak contractile force (net, T=0 value subtracted): 550 mg of tension
[3]
  pIC50: 3.83

## Cc1[nH]c(=O)[nH]c1C(=O)c1ccc([S+](C)[O-])cc1.O (single isomer, unassigned) [(R)-(+)-enantiomer, 1,3-Dihydro-4-methyl-5-[(4-methylsulfinyl)-benzoyl]-2H-imidazol-2-one hydrate]
[1]
  peak contractile force (net, T=0 value subtracted): 175 mg of tension

## CSc1ccc(C(=O)c2[nH]c(=O)[nH]c2C)cc1 [Enoximone, 1,3-Dihydro-4-methyl-5-[4-(methylthio)benzoyl]-2H-imidazol-2-one]
[1]
  peak contractile force (net, T=0 value subtracted): 575 mg of tension
[4]; patients with cardiac failure
  mean clearance: about 10 ml/min/kg
  mean half-life: 6 h
[4]; single oral dose of 3 mg/kg
  Bioavailability: about 55%
[5]; 50 mg every 8 hours
  average steady-state plasma concentration: 115 ± 40 ng/mL
[5]; 100 mg every 8 hours
  average steady-state plasma concentration: 190 ± 78 ng/mL
